Reference: patent US20170260285A1, “METHODS FOR TREATING CANCER” (UNIVERSITY OF IOWA RESEARCH FOUNDATION, priority 2014, published 2017)
Entries after “also recorded” stand apart in the source; their conditions may differ. Like-named read-outs stand apart in the source and are kept apart here.

How the values were obtained:
[1] = system: genes related to inflammation and innate immunity; details: one other study (ref. 25); cited from earlier work
SQ20B xenograft tumors = test: HNSCC xenograft tumor growth in nude mice; format: in vivo, athymic nu/nu mice
Excerpt: Male and female athymic-nu/nu mice (4-5 weeks old) were purchased from Harlan Laboratories (Indianapolis, Ind.). Mice were housed in a pathogen-free barrier room in the Animal Care Facility at the University of Iowa and handled using aseptic procedures. All procedures were approved by the IACUC committee of the University of Iowa and conformed to the guidelines established by the NIH. Mice were allowed at least 3 days to acclimate prior to beginning experimentation, and food and water were made freely available. Tumor cells were inoculated into nude mice by subcutaneous injection of 0.1 mL aliquots of saline containing 2×10^6 SQ20B cells into the right flank using 26-gauge needles.
Mice started drug treatment 1 week after tumor inoculation. For the MyD88 knockdown experiments, female mice were randomized into 2 treatment groups and orally administered either water or 12.5 mg/kg erlotinib (ERL) daily. For the IL-1α neutralization experiments, male and female mice were randomized into 4 treatment groups as follows. Control group: Mice were administered water orally daily and 1 mg/kg IgG i.p once per week. […] Mice were evaluated daily and tumor measurements taken three times per week using Vernier calipers. Tumor volumes were calculated using the formula: tumor volume=(length×width^2)/2 where the length was the longest dimension, and width was the dimension perpendicular to length. […]

SQ20B cells = test: TLR gene expression by RTPCR in SQ20B cells; format: cell-based, human
Procedure: (§7) Total RNA was extracted from cells after indicated time points using RNeasy.Plus mini kit (Qiagen). Conversion of RNA into cDNA was accomplished with the iScript cDNA synthesis kit (Bio-Rad) and a thermocycler with the following conditions: 5 minutes at 25° C., 30 minutes at 42° C., and 5 minutes at 85° C. Subsequent RTPCR analysis was performed in a 96-well optical plate with each well containing 6 μL of cDNA, 7.5 μL of SyBr Green Universal SuperMix (Bio-Rad), and 1.5 μof oligonucleotide primers (sense and antisense; 4 μM) for a total reaction volume of 15 μL. Oligonucleotide primers for human genes were obtained from IDT (Iowa City, Iowa). RTPCR was performed on ABI PRISM Sequence Detection System (model 7000, Applied Biosystems) with the following protocol: 95° C. for 15 seconds (denaturing) and 60° C. for 60 seconds (annealing), repeated for 40 cycles. Threshold cycle (CT) values for analyzed genes (in duplicate) were normalized as compared to GAPDH (cell lines) or 18S (human samples) CT values. Relative abundance was calculated as 0.5̂(ΔCT), with OCT being the CT value of the analyzed gene minus the CT value of the reference gene (GAPDH or 18S).

SQ20B HNSCC cells [2] = test: IL-6 secretion by ELISA in SQ20B cells; format: cell-based, human; details: erlotinib 5 μM, 48 h vs DMSO, ELISA
Excerpt: (§1) Cal-27 and FaDu human head and neck squamous carcinoma (HNSCC) cells were obtained from the American Type Culture Collection (ATCC, Manassas, Va.). SQ20B HNSCC cells (16) were a gift from Dr. Anjali Gupta (Department of Radiation Oncology, The University of Iowa). All HNSCC cell lines are EGFR positive and are sensitive to EGFR inhibitors. All cell lines were authenticated by the ATCC for viability (before freezing and after thawing), growth, morphology and isoenzymology. Cells were stored according to the supplier's instructions and used over a course of no more than 3 months after resuscitation of frozen aliquots. Cultures were maintained in 5% CO2 and air humidified in a 37° C. incubator.
(§2) Erlotinib (ERL; Tarceva) and anakinra (ANA; Kineret) were obtained from the inpatient pharmacy at the University of Iowa Hospitals and Clinics. Drugs were added to cells at final concentrations of 5 μM ERL and 10 ng/mL or 50 ng/mL ANA. Human IgG and […] (DMSO) were used as controls and were obtained from Sigma Aldrich. Human IL-1α, IL-1β, and IL-18Rα neutralizing antibodies were obtained from R&D Systems and were used at a concentration of 0.5 μg/mL. Recombinant human IL-1α was obtained from Life Technologies and administered at a concentration of 1 ng/mL. Ac-Y-VAD-cho, a caspase-1 inhibitor (CalBioChem), was suspended in DMSO and added at a concentration of […], a pan-caspase inhibitor (Promega) was diluted in DMSO and added at a concentration of 20 μM. TLR agonists were used at the following concentrations: Pam3CSK4 (200ng/mL), FSL-1 (100 ng/mL), Poly I:C (20 μg/mL), LPS (200 ng/mL), Flagellin (200 ng/mL), Gardiquimod (1 μg/mL), CL075 (1 μg/mL), and E. coli DNA (1 μg/mL). All TLR agonists were obtained from InvivoGen. The required volume of each drug was added directly to complete cell culture media on cells to achieve the indicated final concentrations.
(§3) Levels of IL-6, IL-1α and IL-1β of treated cells were determined by ELISA. The culture media of the treated cells were harvested and each cytokine was detected according to the manufacturer's protocol using the Human Quantikine ELISA Kits (R&D Systems, Minneapolis, Minn.).
as §1, with “(20)” for “(16)”
(§4) Erlotinib (ERL; Tarceva), anakinra (ANA; Kineret) and N-acetyl cysteine (NAC; Acetadote) were obtained from the inpatient pharmacy at the University of Iowa Hospitals and Clinics. Drugs were added to cells at final concentrations of 5 μM ERL, 10 ng/mL or 50 ng/mL ANA and 20 mM NAC. Human IgG and […] (DMSO) were used as controls and were obtained from Sigma Aldrich. Pegylated catalase (CAT; Sigma Aldrich) was used at a final concentration of 100 U/mL. Human IL-1α, IL-1β, and IL-18Ra neutralizing antibodies were obtained from R&D Systems and were used at a concentration of 0.5 μg/mL. Recombinant human IL-1α was obtained from Life Technologies and administered at a concentration of 1 ng/mL. Ac-Y-VAD-cho (CalBioChem) was suspended in DMSO and used at 5 μM. Z-VAD-fmk (Promega) was diluted in DMSO and used at 20 μM. TLR agonists were used at the following concentrations: Pam3CSK4 (200 ng/mL), FSL-1 (100 ng/mL), Poly I:C (20 μg/mL), LPS (200 ng/mL), Flagellin (200 ng/mL), Gardiquimod (1 μg/mL), CL075 (1 μg/mL), and E. coli DNA (1 μg/mL). All TLR agonists were obtained from InvivoGen. […]

Cal-27 HNSCC cells [3] = test: IL-6 secretion by ELISA in Cal-27 cells; format: cell-based, human; details: erlotinib 5 μM, 48 h vs DMSO, ELISA
Excerpt: as §1, §2, §3
as §1, with “(20)” for “(16)”
as §4

Cal-27 cells = test: TLR gene expression by RTPCR in Cal-27 cells; format: cell-based, human
Procedure: as §7

[4] = system: SQ20B and Cal-27 HNSCC cells; test: IL-1β secretion by ELISA after erlotinib; format: cell-based, human; details: erlotinib 5 μM, any time point
Procedure: as §2, with “TLR agonists were used at the following concentrations: Pam3CSK4 (200ng/mL), FSL-1 (100 ng/mL), Poly I:C (20 μg/mL), LPS (200 ng/mL), Flagellin (200 ng/mL), Gardiquimod (1 μg/mL), CL075 (1 μg/mL), and E. coli DNA (1 μg/mL). All TLR agonists were obtained from InvivoGen. The required volume of each drug was added directly to complete cell culture media on cells to achieve the indicated final concentrations.” left out
Levels of IL-6, IL-1α and IL-1β of treated cells were determined by ELISA. The culture media of the treated cells were harvested and each cytokine was detected according to the manufacturer's protocol using the Human Quantikine ELISA Kits (R&D Systems, Minneapolis, Minn.). […]
(§5) Levels of IL-6, IL-1α and IL-1β of treated cells were determined by ELISA. The culture media of the treated cells were harvested and each cytokine was detected according to the manufacturer's protocol using Human Quantikine ELISA Kits (R&D Systems, Minneapolis, Minn.).

SQ20B HNSCC cells [5] = test: IL-1α release by ELISA in SQ20B cells; format: cell-based, human; details: erlotinib 5 μM, indicated time points, ELISA
Procedure: as §2, §3
(§6) Erlotinib (ERL; Tarceva), anakinra (ANA; Kineret) and N-acetyl cysteine (NAC; Acetadote) were obtained from the inpatient pharmacy at the University of Iowa Hospitals and Clinics. Drugs were added to cells at final concentrations of 5 μM ERL, 10 ng/mL or 50 ng/mL ANA and 20 mM NAC. Human IgG and […] (DMSO) were used as controls and were obtained from Sigma Aldrich. Pegylated catalase (CAT; Sigma Aldrich) was used at a final concentration of 100 U/mL. Human IL-1α, IL-1β, and IL-18Ra neutralizing antibodies were obtained from R&D Systems and were used at a concentration of 0.5 μg/mL. Recombinant human IL-1α was obtained from Life Technologies and administered at a concentration of 1 ng/mL. Ac-Y-VAD-cho (CalBioChem) was suspended in DMSO and used at 5 μM. Z-VAD-fmk (Promega) was diluted in DMSO and used at 20 μM. TLR agonists were used at the following concentrations: Pam3CSK4 (200 ng/mL), FSL-1 (100 ng/mL), Poly I:C (20 μg/mL), LPS (200 ng/mL), Flagellin (200 ng/mL), Gardiquimod (1 μg/mL), CL075 (1 μg/mL), and E. coli DNA (1 μg/mL). All TLR agonists were obtained from InvivoGen. The required volume of each drug was added directly to complete cell culture media on cells to achieve the indicated final concentrations.
as §5

Cal-27 HNSCC cells [6] = test: IL-1α release by ELISA in Cal-27 cells; format: cell-based, human; details: erlotinib 5 μM, indicated time points, ELISA
Procedure: as §2, §3, §6, §5

HNSCC tumor cell lines = details: previous studies (ref. 10), cited from earlier work
[7] = ERL 5 μM 48 h, absolute levels very low

Row | Structure (SMILES) | genes related to inflammation and innate immunity [1] | anti-tumor activity in vivo with IL-1α blockade (SQ20B xenograft tumors; EGFRI combined with IL-1α blockade (neutralizing IL-1α antibody)) | tumor growth of MyD88-deficient xenografts treated with erlotinib (SQ20B xenograft tumors; shMyD88 #2 and #9 vs erlotinib-treated control xenografts, 12.5 mg/kg orally daily, three weeks) | TLR8 expression (SQ20B cells; [7]) | TLR mRNA expression (SQ20B cells; erlotinib) | IL-6 production/secretion with erlotinib (SQ20B HNSCC cells [2]) | IL-6 production/secretion with erlotinib (Cal-27 HNSCC cells [3]) | TLR10 expression (Cal-27 cells; [7]) | TLR mRNA expression (Cal-27 cells; erlotinib) | secreted IL-1β after erlotinib treatment [4] | secreted IL-1β after erlotinib treatment ([4]; listed as ERL) | IL-1α after erlotinib treatment over time (SQ20B HNSCC cells [5]) | IL-1α after erlotinib treatment over time (SQ20B HNSCC cells [5]; listed as ERL) | IL-1α after erlotinib treatment over time (Cal-27 HNSCC cells [6]) | IL-1α after erlotinib treatment over time (Cal-27 HNSCC cells [6]; listed as ERL) | IL-6 expression/secretion in HNSCC cell lines treated with EGFRIs (HNSCC tumor cell lines) | IL-6 expression/secretion in HNSCC cell lines treated with EGFRIs (HNSCC tumor cell lines; listed as ERL)
1 | COc1cc2ncnc(Nc3cccc(Br)c3)c2cc1OC [PD153035] | upregulated |  |  |  |  |  |  |  |  |  |  |  |  |  |  |  | 
2 | C#Cc1cccc(Nc2ncnc3cc(OCCOC)c(OCCOC)cc23)c1 [erlotinib, Erlotinib] |  | significantly increased | reduced tumor growth | increased | did not affect | increases IL-6 production | increases IL-6 production | increased | did not affect | undetectable; also recorded: unable to detect | not IL-1β was detectable | steadily increased across all time points | increased across all time points | steadily increased across all time points | increased across all time points | significant upregulation | induces the secretion of IL-6
